{
  "source": "patent US20090270453A1",
  "about": "“ANTI-MANIC EFFECTIVE DOSES OF SERTINDOLE” (priority 2007, published 2009)",
  "key": {"[1]": {"system": "AMPH+CDP induced locomotor activity", "conditions": "rats; Lamberty, et al. 2001; cited from earlier work"}, "[2]": {"system": "sensitized response to an acute AMPH challenge", "conditions": "mice; Husum 2005, poster no. 32.06; cited from earlier work"}, "[3]": {"system": "AMPH+CDP induced locomotor activity", "assay": "Sensitized AMPH+CDP response model (induced locomotor hyperactivity)", "type": "in vivo, Male Wistar rats", "conditions": "for effect on AMPH+CDP induced locomotor activity (hyperactivity): rats, s.c. pre-treatment, about 120 min test-period", "description": "(§1) Subjects: Male Wistar rats weighing about 150-200 g were housed 2-4 rats per cage in makrolon cages (about 20×about 35 cm) equipped with sawdust and with one plastic house for enrichment. The animals were kept at room temperature (about 20° C.±2) in about 12-hour light/dark cycle (lights on at about 06:00) with free access to food and tap water. The rats were allowed to acclimatize to the animal facility premises for about 5-9 days prior to the initiation of experiments. The animals were taken to the experimental room on the day before the experiment and weighed.\nDrugs: All drugs are listed as mg free base/kg with the exception of lithium (mEq/kg). Drug solutions were titrated into a pH range of about 4.5-7.0 for subcutaneous (s.c.) administration. To induce hyperactivity, amphetamine sulphate (about 0.9 mg/kg in about 0.9% NaCl, about 1 ml/kg) followed by CDP (7-Chloro-2-(methylmino)-5-phenyl-3h-1,4-benzodiazepine-4-oxide, about 8.9 mg/kg in about 10% hydroxypropyl-beta-cyclodextrin) was administrated about 35 minutes before the test. A parallel set of control animal received two vehicle injections. Lithium chloride (about 0.2-0.9 mEq/kg) was dissolved in distilled water isosmotically supplemented with NaCl, and administrated about 210 minutes before testing. Lamotrigine (6-(2,3-Dichloro-phenyl)-[1,2,4]-triazine-3,5-diamine, about 2.5-80 mg/kg) was dissolved in about 10% hydroxypropyl-beta-cyclodextrin and administrated about 30 minutes before the test.\n(§2) Test procedure: For the assessment of locomotor activity, makrolon cages (about 20×about 35 cm) with a thin layer of standard bedding material were placed in a U-frame equipped longitudinally with 4 infrared light sources and photocells placed about 4 cm above the bottom of the cage. All experiments were conducted under normal light conditions. The animals were placed individually in test boxes and the assessment of locomotor activity was immediately begun. During the test session, locomotor activity was recorded as crossings of infrared light beams and total locomotor activity was the accumulated number of crossings over the approximately 120-min period. The recording of a motility count required the crossing of two adjacent light beams, thus avoiding counts induced by stationary movements of the rat.\nData Analysis: The average total basal locomotor activity of the control groups in the different experiments varied between 322-516 light beam crossings (see Table 1). Due to this variation, the results in each experiment were normalized to percentage activity relative to the average total locomotor activity of control group that was set as 100%. Statistical analysis of differences in total locomotor activity (normalized data) among the various treatment groups was carried out using a two-way ANOVA with factors treatment (AMPH+CDP vs. vehicle) and drug (drug vs. vehicle). In case of a significant interaction, a post hoc Student-Newman-Keuls Method was used for multiple comparisons. A probability level of 0.05 was considered significant.\nCrossings of light-beams as a measure of locomotor activity over about a 120 min test-period is shown as percentage of the control group-level that is set to 100%. The bars show the mean±SEM for each group and the dots show the activity of individual rats (n=10-12). Administration of amphetamine (about 0.9 mg/kg, s.c.) and chlordiazepoxide (about 8.9 mg/kg, s.c.) produced a significant increase in locomotor activity (***p<0.001 vs. control group (O) in all experiments)."}, "[4]": {"system": "baseline locomotor activity of control rats", "assay": "Baseline locomotor activity of control rats in locomotor box", "type": "in vivo, Male Wistar rats", "conditions": "for Average Crossings in % (SEM): % of control group set to 100%; for effect on baseline (basal) locomotor activity: locomotor box about 2 hours, administered doses", "description": "as §1, §2\nStatistical analysis of differences in total locomotor activity (normalized data) among the various treatment groups was carried out using a two-way ANOVA with factors treatment (AMPH+CDP vs. vehicle) and drug (drug vs. vehicle). In case of a significant interaction, a post hoc Student-Newman-Keuls Method was used for multiple comparisons. A probability level of 0.05 was considered significant."}, "[5]": {"system": "sensitized response to an acute AMPH challenge", "assay": "Sensitized AMPH response model (induced hyperactivity)", "type": "in vivo, Male Crl:NMRI mice", "conditions": "for effect on AMPH induced hyperactivity in sensitized mice: s.c. pre-treatment, about 30 min recording", "description": "(§3) Subjects: Male Crl:NMRI mice (about 20 g) were at the animal facility about 5 days prior to the start of the experiment and were housed in climate-controlled animal facilities under normal light-dark cycle (lights on about 06:00 to about 18:00). The mice were kept 6 per cage and allowed enrichment (two plastic houses+nesting material).\n(§4) Drugs: All compounds were administered subcutaneously and are listed as free base doses. The mice were pre-treated with either d-amphetamine (about 1.8 mg/kg) or vehicle (about 0.9% NaCl, about 10 ml/kg) once daily for five consecutive days.\nTest procedure: About 17-19 days after the pre-treatment, the animals were treated with test substance or vehicle and individually placed to habituate for about 30 min in motility boxes (about 20×about 32 cm) equipped with about 5×about 8 light sources and infrared cells spaced by about 4 cm. The light beams crossed the cage 1.8 cm above the bottom of the cage. Recording of a motility count requires interruption of adjacent light beams, thus avoiding counts induced by stationary movements of the mice. After habituation, an acute dose of d-amphetamine (about 0.95 mg/kg) or vehicle was administered and data acquisition was begun and lasted for about 30 min.\n(§5) Data Analysis: Data were averaged within the groups (n=12) and are presented as mean±SD. The acute effect of test substance against the sensitized response to amphetamine was statistically evaluated by one-way ANOVA of variance: Dunn's method was applied for post hoc testing against the sensitized group receiving (NaCl, about 1 ml/kg) followed by CDP (about 8.9 mg/kg in 10% hydroxypropyl-beta-cyclodextrin) was administrated about 35 minutes before the test. A parallel set of control animal received two vehicle injections."}, "[6]": {"system": "saline activity", "assay": "Activity of saline (non-AMPH) mice in the sensitized AMPH response model", "type": "in vivo, Male Crl:NMRI mice", "conditions": "sertindole about 0.63 mg/kg", "description": "as §3, §4\nTest procedure: About 17-19 days after the pre-treatment, the animals were treated with test substance or vehicle and individually placed to habituate for about 30 min in motility boxes (about 20×about 32 cm) equipped with about 5×about 8 light sources and infrared cells spaced by about 4 cm. The light beams crossed the cage 1.8 cm above the bottom of the cage. […]\nas §5, with “A parallel set of control animal received two vehicle injections.” left out"}, "[7]": {"system": "serotonin 5-HT2", "conditions": "Sanchez et al. 1991; Arnt and Skarsfeldt 1998; cited from earlier work"}, "[8]": {"target": "dopamine D2 (Homo sapiens, UniProt P14416)", "sequence (P14416 whole entry)": "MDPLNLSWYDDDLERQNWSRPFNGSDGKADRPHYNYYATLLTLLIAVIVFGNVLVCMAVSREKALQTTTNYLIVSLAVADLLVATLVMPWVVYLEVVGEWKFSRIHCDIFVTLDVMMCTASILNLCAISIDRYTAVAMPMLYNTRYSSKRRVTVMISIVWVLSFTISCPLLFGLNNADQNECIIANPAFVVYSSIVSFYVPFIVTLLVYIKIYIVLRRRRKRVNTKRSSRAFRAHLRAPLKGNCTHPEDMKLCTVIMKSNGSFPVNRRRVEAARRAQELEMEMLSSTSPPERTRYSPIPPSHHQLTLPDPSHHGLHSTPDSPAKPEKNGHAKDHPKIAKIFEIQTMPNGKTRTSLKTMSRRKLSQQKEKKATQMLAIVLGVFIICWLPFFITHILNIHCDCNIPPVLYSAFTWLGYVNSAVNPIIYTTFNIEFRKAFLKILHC", "conditions": "Sanchez et al. 1991; Arnt and Skarsfeldt 1998; cited from earlier work"}, "[9]": {"system": "α1-adrenergic receptors", "conditions": "Sanchez et al. 1991; Arnt and Skarsfeldt 1998; cited from earlier work"}, "[10]": {"system": "schizophrenic patients", "conditions": "human clinical studies; Daniel D, et al. 1995; cited from earlier work"}},
  "note": "Entries after “also recorded” stand apart in the source; their conditions may differ.",
  "data": [
    {"molecule": "NC(=O)N1c2ccccc2C=Cc2ccccc21", "note": "[carbamazepine]", "values": [
      {"measurement": "effectiveness in the AMPH+CDP induced hyperactivity model", "setting": "[1]", "result": "effective"},
      {"measurement": "effect on the sensitized response to an acute AMPH challenge", "setting": "[2]", "result": "dose-dependently abolish; also recorded: reversed the effect of acute AMPH administration"}
    ]},
    {"molecule": "Nc1nnc(-c2cccc(Cl)c2Cl)c(N)n1", "note": "[lamotrigine, 6-(2,3-Dichloro-phenyl)-[1,2,4]-triazine-3,5-diamine]", "values": [
      {"measurement": "significance of reduction of AMPH+CDP induced locomotor activity", "setting": "[3]; lamotrigine about 20 mg/kg, about 30 min s.c. pre-treatment", "result": "significant"},
      {"measurement": "significance of reduction of AMPH+CDP induced locomotor activity", "setting": "[3]; lamotrigine about 20 mg/kg, about 30 min s.c. pre-treatment, listed as Lamotrigine", "result": "significantly counteracted"},
      {"measurement": "significance of reduction of AMPH+CDP induced locomotor activity", "setting": "[3]; lamotrigine about 40 mg/kg, about 30 min s.c. pre-treatment", "result": "significant"},
      {"measurement": "significance of reduction of AMPH+CDP induced locomotor activity", "setting": "[3]; lamotrigine about 40 mg/kg, about 30 min s.c. pre-treatment, listed as Lamotrigine", "result": "significantly counteracted"},
      {"measurement": "significance of reduction of AMPH+CDP induced locomotor activity", "setting": "[3]; lamotrigine about 80 mg/kg, about 30 min s.c. pre-treatment", "result": "significant"},
      {"measurement": "significance of reduction of AMPH+CDP induced locomotor activity", "setting": "[3]; lamotrigine about 80 mg/kg, about 30 min s.c. pre-treatment, listed as Lamotrigine", "result": "significantly counteracted"},
      {"measurement": "effect on AMPH+CDP induced locomotor activity (hyperactivity)", "setting": "[3]", "result": "significantly reduced; also recorded: reduced the induced locomotor activity"},
      {"measurement": "effect on AMPH+CDP induced locomotor activity (hyperactivity)", "setting": "[3]; listed as Lamotrigine", "result": "significantly and dose-dependently decreased"},
      {"measurement": "Average Crossings in % (SEM)", "setting": "[4]; 2.5 mg/kg", "result": 114.5, "unit": "%"},
      {"measurement": "Average Crossings in % (SEM)", "setting": "[4]; 10 mg/kg", "result": 107.9, "unit": "%"},
      {"measurement": "Average Crossings in % (SEM)", "setting": "[4]; 20 mg/kg", "result": 97.2, "unit": "%"},
      {"measurement": "Average Crossings in % (SEM)", "setting": "[4]; 40 mg/kg", "result": 82.0, "unit": "%"},
      {"measurement": "Average Crossings in % (SEM)", "setting": "[4]; 80 mg/kg", "result": 83.0, "unit": "%"},
      {"measurement": "effect on baseline (basal) locomotor activity", "setting": "[4]", "result": "not reduced; also recorded: no significant effect"},
      {"measurement": "effect on the sensitized response to an acute AMPH challenge", "setting": "[2]", "result": "dose-dependently abolish; also recorded: reversed the effect of acute AMPH administration"}
    ]},
    {"molecule": "CCCC(CCC)C(=O)O", "note": "[valproate]", "values": [
      {"measurement": "effectiveness in the AMPH+CDP induced hyperactivity model", "setting": "[1]", "result": "effective"},
      {"measurement": "effect on the sensitized response to an acute AMPH challenge", "setting": "[2]", "result": "dose-dependently abolish; also recorded: reversed the effect of acute AMPH administration"}
    ]},
    {"molecule": "O=C1NCCN1CCN1CCC(c2cn(-c3ccc(F)cc3)c3ccc(Cl)cc23)CC1", "note": "[sertindole]", "values": [
      {"measurement": "effect on AMPH+CDP induced locomotor activity (hyperactivity)", "setting": "[3]", "result": "reduced the induced locomotor activity; also recorded: significantly decreased; also recorded: active"},
      {"measurement": "significance of reduction of AMPH+CDP induced locomotor activity", "setting": "[3]; sertindole about 0.16 mg/kg, about 120 min s.c. pre-treatment", "result": "significant"},
      {"measurement": "significance of reduction of AMPH+CDP induced locomotor activity", "setting": "[3]; sertindole about 1.25 mg/kg, about 120 min s.c. pre-treatment", "result": "significant"},
      {"measurement": "Average Crossings in % (SEM)", "setting": "[4]; 0.02 mg/kg", "result": 116.7, "unit": "%"},
      {"measurement": "Average Crossings in % (SEM)", "setting": "[4]; 0.16 mg/kg", "result": 119.9, "unit": "%"},
      {"measurement": "Average Crossings in % (SEM)", "setting": "[4]; 1.25 mg/kg", "result": 132.4, "unit": "%"},
      {"measurement": "effect on baseline (basal) locomotor activity", "setting": "[4]", "result": "no significant effect"},
      {"measurement": "effect on AMPH induced hyperactivity in sensitized mice", "setting": "[5]", "result": "reversed the induced hyperactivity; also recorded: significantly decreased; also recorded: active"},
      {"measurement": "effect on induced hyperactivity", "setting": "[5]; sertindole 0.16 mg/kg", "result": "significantly reversed the induced hyperactivity"},
      {"measurement": "effect on saline activity", "setting": "[6]", "result": "significantly decreased the saline activity"},
      {"measurement": "affinity for serotonin 5-HT2", "setting": "[7]", "result": "high affinity"},
      {"measurement": "affinity for dopamine D2", "setting": "[8]", "result": "high affinity"},
      {"measurement": "affinity for α1-adrenergic receptors", "setting": "[9]", "result": "high affinity"},
      {"measurement": "doses effective to treat schizophrenic patients", "setting": "[10]", "result": "12 to 24", "unit": "mg/day"}
    ]},
    {"molecule": "O=C(CCCN1CCC(O)(c2ccc(Cl)cc2)CC1)c1ccc(F)cc1", "note": "[haloperidol]", "values": [
      {"measurement": "effect on the sensitized response to an acute AMPH challenge", "setting": "[2]", "result": "reversed the effect of acute AMPH administration"}
    ]},
    {"molecule": "CN(C)CCCC1(c2ccc(F)cc2)OCc2cc(C#N)ccc21", "note": "(centres unmarked) [citalopram]", "values": [
      {"measurement": "Average Crossings in % (SEM)", "setting": "[4]; 0.8 mg/kg", "result": 71.0, "unit": "%"},
      {"measurement": "effect on baseline (basal) locomotor activity", "setting": "[4]", "result": "no significant effect"},
      {"measurement": "effect on AMPH induced hyperactivity in sensitized mice", "setting": "[5]", "result": "no effect"},
      {"measurement": "effect on AMPH induced hyperactivity in sensitized mice", "setting": "[5]; listed as Citalopram", "result": "inactive"}
    ]}
  ]
}
